Tests used:
Type in all cases: in vivo
[1] = system: Monocotyledonous and dicotyledonous weed seeds and main crop seeds; assay: Post-emergence test experiment, other weeds and crops (Table 4, 1000 g a.i./ha); conditions: 3 weeks in greenhouse, fresh weight inhibition
Procedure, shortened: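 Growth inhibition is scored on fresh weight. Spray solutions were made in acetone with tween-80, diluted in water, plus 1.5 L/ha methyl oleate emulsible concentrate. Plants from greenhouse-grown weed and crop seeds were treated post-emergence at 2-3 leaves, 2 weeks after sowing.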

[2] = system: Semen Euphorbiae Lathyridis; assay: Post-emergence test experiment, Semen Euphorbiae Lathyridis; conditions: 200 g a.i./ha, 3 weeks, weed resistant to cyhalofop-butyl
Description: (§1) The above described growth inhibition rate is fresh weight inhibition rate.
(§2) Post-emergence test experiment: Monocotyledonous and dicotyledonous weed seeds and main crop seeds (i. e. wheat, corn, rice, soybean, cotton, oilseed, millet and sorghum.) were put into a plastic pot loaded with soil. Then covered with 0.5-2 cm soil, the seeds were allowed to grow in good greenhouse environment. The test plants were treated at 2-3 leaf stage 2 weeks after sowing. The test compounds of the invention were dissolved with acetone respectively, then added with tween-80, and using 1.5 liters per hectare of an emulsible concentrate of methyl oleate as a synergist, and diluted by certain amount of water to certain concentration. The solution was sprayed to the plants with a sprayer. Then the plants were cultured for 3 weeks in the greenhouse, and the experiment result of weed controlling effect was listed in tables 4-5.

Digitaria sanguinalis = assay: Post-emergence test experiment, Digitaria sanguinalis; conditions: for Digitaria sanguinalis, activity level (growth inhibition rate): 200 g a.i./ha, 3 weeks, weed resistant to cyhalofop-butyl; for Activity level (growth inhibition rate), Digitaria sanguinalis: 1000 g a.i./ha, 3 weeks in greenhouse, fresh weight inhibition
Procedure, shortened: (§3)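 Test compounds dissolve in acetone, receive tween-80 and a methyl oleate emulsible concentrate synergist (1.5 liters per hectare), then are diluted in water and sprayed onto 2-3 leaf stage plants. After 3 weeks of greenhouse culture, fresh weight inhibition is determined.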

rice = assay: Post-emergence test experiment, rice (crop selectivity); conditions: 200 g a.i./ha, 3 weeks
Description: as §1, §2

Echinochloa crusgalli = assay: Post-emergence test experiment, Echinochloa crusgalli; conditions: for Echinochloa crusgalli, activity level (growth inhibition rate): 200 g a.i./ha, 3 weeks, weed resistant to ALS inhibitor and ACCe herbicides; for Activity level (growth inhibition rate), Echinochloa crusgalli: 1000 g a.i./ha, 3 weeks in greenhouse, fresh weight inhibition
Procedure, shortened: as §3

Structure (SMILES)	Activity level (growth inhibition rate), Abutilon theophrasti Medic. [1]	Activity level (growth inhibition rate), Galium aparine [1]	Activity level (growth inhibition rate), Monochoria Vaginalis [1]	Semen Euphorbiae Lathyridis, activity level (growth inhibition rate) [2]	Digitaria sanguinalis, activity level (growth inhibition rate) (Digitaria sanguinalis)	Activity level (growth inhibition rate), Digitaria sanguinalis (Digitaria sanguinalis)	rice, activity level (growth inhibition rate) (rice)	Echinochloa crusgalli, activity level (growth inhibition rate) (Echinochloa crusgalli)	Activity level (growth inhibition rate), Echinochloa crusgalli (Echinochloa crusgalli)
CCCC(C)COC(=O)[C@@H](C)Oc1nc(F)c(Cl)c(N)c1Cl (stereo partly drawn) [Compound 2-103]	5 (Level 5: the growth inhibition rate is greater than 85%)	5 (Level 5: the growth inhibition rate is greater than 85%)	5 (Level 5: the growth inhibition rate is greater than 85%)	5 (Level 5: the growth inhibition rate is greater than 85%)	5 (Level 5: the growth inhibition rate is greater than 85%)	5 (Level 5: the growth inhibition rate is greater than 85%)	0 (Level 0: the growth inhibition rate is less than 5%)	5 (Level 5: the growth inhibition rate is greater than 85%)	5 (Level 5: the growth inhibition rate is greater than 85%)
CCCCC(C)OC(=O)[C@@H](C)Oc1nc(F)c(Cl)c(N)c1Cl (stereo partly drawn) [Compound 2-113]	5 (Level 5: the growth inhibition rate is greater than 85%)	5 (Level 5: the growth inhibition rate is greater than 85%)	5 (Level 5: the growth inhibition rate is greater than 85%)	5 (Level 5: the growth inhibition rate is greater than 85%)	5 (Level 5: the growth inhibition rate is greater than 85%)	5 (Level 5: the growth inhibition rate is greater than 85%)	0 (Level 0: the growth inhibition rate is less than 5%)	5 (Level 5: the growth inhibition rate is greater than 85%)	5 (Level 5: the growth inhibition rate is greater than 85%)
CCCCCCCOC(=O)[C@@H](C)Oc1nc(F)c(Cl)c(N)c1Cl [Compound 2-121]	5 (Level 5: the growth inhibition rate is greater than 85%)	5 (Level 5: the growth inhibition rate is greater than 85%)	5 (Level 5: the growth inhibition rate is greater than 85%)	5 (Level 5: the growth inhibition rate is greater than 85%)	5 (Level 5: the growth inhibition rate is greater than 85%)	5 (Level 5: the growth inhibition rate is greater than 85%)	0 (Level 0: the growth inhibition rate is less than 5%)	5 (Level 5: the growth inhibition rate is greater than 85%)	5 (Level 5: the growth inhibition rate is greater than 85%)
CCCCCCCCCCOC(=O)[C@@H](C)Oc1nc(F)c(Cl)c(N)c1Cl [Compound 2-195]	5 (Level 5: the growth inhibition rate is greater than 85%)	5 (Level 5: the growth inhibition rate is greater than 85%)	5 (Level 5: the growth inhibition rate is greater than 85%)	5 (Level 5: the growth inhibition rate is greater than 85%)	5 (Level 5: the growth inhibition rate is greater than 85%)	5 (Level 5: the growth inhibition rate is greater than 85%)	0 (Level 0: the growth inhibition rate is less than 5%)	4 (Level 4: the growth inhibition rate is equal to or greater than 60% and less than 85%)	5 (Level 5: the growth inhibition rate is greater than 85%)
CCCCCCCCCCCOC(=O)[C@@H](C)Oc1nc(F)c(Cl)c(N)c1Cl [Compound 2-215]	5 (Level 5: the growth inhibition rate is greater than 85%)	5 (Level 5: the growth inhibition rate is greater than 85%)	5 (Level 5: the growth inhibition rate is greater than 85%)	5 (Level 5: the growth inhibition rate is greater than 85%)	5 (Level 5: the growth inhibition rate is greater than 85%)	5 (Level 5: the growth inhibition rate is greater than 85%)	0 (Level 0: the growth inhibition rate is less than 5%)	4 (Level 4: the growth inhibition rate is equal to or greater than 60% and less than 85%)	5 (Level 5: the growth inhibition rate is greater than 85%)
CCCCCCCCCCCCOC(=O)[C@@H](C)Oc1nc(F)c(Cl)c(N)c1Cl [Compound 2-235]	5 (Level 5: the growth inhibition rate is greater than 85%)	5 (Level 5: the growth inhibition rate is greater than 85%)	5 (Level 5: the growth inhibition rate is greater than 85%)	5 (Level 5: the growth inhibition rate is greater than 85%)	5 (Level 5: the growth inhibition rate is greater than 85%)	5 (Level 5: the growth inhibition rate is greater than 85%)	0 (Level 0: the growth inhibition rate is less than 5%)	5 (Level 5: the growth inhibition rate is greater than 85%)	5 (Level 5: the growth inhibition rate is greater than 85%)
CCCCOCCOC(=O)C(C)Oc1nc(F)c(Cl)c(N)c1Cl (stereo not drawn) [Compound 2-271]	5 (Level 5: the growth inhibition rate is greater than 85%)	5 (Level 5: the growth inhibition rate is greater than 85%)	5 (Level 5: the growth inhibition rate is greater than 85%)	5 (Level 5: the growth inhibition rate is greater than 85%)	5 (Level 5: the growth inhibition rate is greater than 85%)	5 (Level 5: the growth inhibition rate is greater than 85%)	0 (Level 0: the growth inhibition rate is less than 5%)	5 (Level 5: the growth inhibition rate is greater than 85%)	5 (Level 5: the growth inhibition rate is greater than 85%)
C[C@@H](Oc1nc(F)c(Cl)c(N)c1Cl)C(=O)OCCCC(F)(F)F [Compound 2-280]	5 (Level 5: the growth inhibition rate is greater than 85%)	5 (Level 5: the growth inhibition rate is greater than 85%)	5 (Level 5: the growth inhibition rate is greater than 85%)	5 (Level 5: the growth inhibition rate is greater than 85%)	5 (Level 5: the growth inhibition rate is greater than 85%)	5 (Level 5: the growth inhibition rate is greater than 85%)	0 (Level 0: the growth inhibition rate is less than 5%)	5 (Level 5: the growth inhibition rate is greater than 85%)	5 (Level 5: the growth inhibition rate is greater than 85%)
CC(Oc1nc(F)c(Cl)c(N)c1Cl)C(=O)OCCN(C)C (stereo not drawn) [Compound 2-283]	5 (Level 5: the growth inhibition rate is greater than 85%)	5 (Level 5: the growth inhibition rate is greater than 85%)	5 (Level 5: the growth inhibition rate is greater than 85%)	5 (Level 5: the growth inhibition rate is greater than 85%)	5 (Level 5: the growth inhibition rate is greater than 85%)	5 (Level 5: the growth inhibition rate is greater than 85%)	0 (Level 0: the growth inhibition rate is less than 5%)	5 (Level 5: the growth inhibition rate is greater than 85%)	5 (Level 5: the growth inhibition rate is greater than 85%)
